Experimental data published in patent US20100209934A1, “METHOD OF IDENTIFYING AGENTS WHICH MODULATE THE ACTIVITY OF CALCIUM-ACTIVATED CHLORIDE CHANNEL” (SNU R&DB FOUNDATION, priority 2007, published 2010).
Like-named read-outs stand apart in the source and are kept apart here.

Columns and labels:
mANO1 [1] = assay: FLIPR membrane potential (voltage-sensing fluorescence) assay in mANO1-stably expressing HEK cells; format: cell-based, mouse; conditions: for membrane potential change detected by fluorescent intensity: 100 μM ATP or 10 μM A23187, mANO1-stably expressing HEK cells, not seen in control HEK cells
Procedure: The activity of the ANO1-stable cell line was characterized with a FLIPR® Membrane Potential assay kit (Molecular devices, Sunnyvale, Calif.) according to the manufacture's instructions. ANO1-stable cell lines were seeded into poly-D-lysine coated 96-well plates (50,000 cells/each well). One day after the plating, the cells were incubated with 50 μl Hank's balanced salt solution (HBSS) containing membrane potential dye for 40 min at 37° C. To test the activity of ANO1 stable cell line, 100·μM ATP or 10·μM A23187 (Sigma, St Louis, Mo., USA) was added to each well for 20 sec after starting detection. The fluorescence intensity was measured by a fluorometric imaging plate reader (FlexStation™ II, MolecularDevices). Membrane potential dye was excited at 530 nm, and the intensity of fluorescence emitted at 565 nm was measured.
To determine if ANO1 is applicable for high-throughput screening (HTS) analysis, we constructed a stable cell line that constitutively expresses mANO1 (Reference example 7). The mANO1 stable cell line was grown in wells of a 96-well plate. mANO1-stably expressing HEK cells were incubated with a voltage sensor fluorescent dye (FLIPR®-membrane potential assay kit, Molecular Device) to detect change in membrane potential when ANO1 is activated. When ANO1 is activated, Cl^− would flux out the cell to depolarize the membrane, which makes the fluorescence dye fluoresce. After wash out the fluorescent dye, 100 μM ATP was applied. […] Fluorescent intensity was detected at excitation 530 nm and emission 565 nm by FlexStation 2 (Molecular device). […] F/F0: ratio of fluorescence intensity. Pretreatment of 2APB, a known blocker of IP3 receptor, blocked the ATP induced-membrane potential change in ANO1-stably expressing HEK cells (FIG. 13C).

mANO1 [2] = assay: Whole-cell current response to GPCR stimulation in HEK 293T cells co-transfected with mANO1 and a GPCR; format: cell-based, mouse
Procedure: HEK 293T cells were transfected with pEGFP-N1 (control) (1.0 μg) or pEGFP-N-1-mANO1 (0.8˜1.0 μg) and/or any one of the GPCR cDNAs (1.0 μg) obtained in Reference Example 2, using a FuGENE® HD transfection reagent (Roche Diagnostics, Penzberg, Germany). Transfected cells were maintained in DMEM supplemented with heat inactivated 10% fetal bovine serum (GIBCO BRL, Rockville, Md.) and penicillin-streptomycin at 37 in a 5% CO2 humidified atmosphere. One or two days after transfection, transfected cells were used for biochemical and electrophysiological experiments.
(§1) To form gigaseals, individual cell surfaces were touched with a ˜3 Mohm Sylgard-coated glass pipette with gentle suction, and the junction potential was then adjusted to 0 mV. The membrane in contact with the pipette was then ruptured by suction to form a whole cell. The pipette solution contained 140 mM NMDG-Cl, 2 mM MgCl2, 10 mM HEPES, 2 mM ATP, and 0.3 mM GTP adjusted to pH 7.2, and the bath solution contained 140 mM NMDG-Cl, 2 mM MgCl2 and 10 mM HEPES (pH 7.2). For ion selectivity experiments, 140 mM NMDG-Cl was replaced with equimolar NaCl, NaL NaBr, NaNO3, NaF, or Na-gluconate in the bath solution. To determine current-voltage relationships, voltage ramps from −80 or −100 mV to +80 or +100 mV were delivered for 350 ms, or voltage-pulses from −100 mV to +100 mV were delivered for 400 ms to whole cells. When mANO1 was activated by 300 nM intracellular Ca^2+, voltage-pulses of 2500 ms were delivered. Whole-cell currents were amplified using an Axopatch 200B amplifier (Molecular Device, Sunnyvale, Calif.) and stored in a personal computer after digitization by a Digidata 1440 (Molecular Device). For single-channel current recordings, cell-attached or inside-out patches were formed from gigaseals. The pipette and control bath solution contained 140 mM NMDG-Cl, 2 mM MgCl2 and 10 mM HEPES (pH 7.2). […] To create amplitude histograms, pClamp software (version 6.0, Molecular Device) was used to analyze open and closed single-channel current events. The half-amplitude algorithm was used to determine an open event. The minimum duration of an open event was set at 0.1 ms.
Under physiological conditions CaCCs are known to be activated by GPCR stimulation. Endothelin-1 is a powerful vasoconstrictor that depolarizes vascular smooth muscle by activating CaCCs (Klockner, U. & Isenberg, G., Pflugers Arch. 418, 168-75 (1991); and Salter, K. J. & Kozlowski, R. Z., J Pharmacol Exp Ther. 279, 1053-62 (1996)). Thus, mANO1 and endothelin receptor subtype A (ETAR) were transfected into HEK 293T cells, along with GFP for visual identification of transfected cells, in accordance with the method of Reference Example 5. Whole cells were used to test the current response of mANO1 to ETAR stimulation. Pipette and bath solutions contained 140 mM N-methyl D-glucamine (NMDG)-Cl, which permitted Cl^− to be used as the main charge carrier. The pipette solution was Ca^2+ free and contained no EGTA. […] In contrast, endothelin-1 evoked currents were minimal in HEK cells transfected with ETAR or control (GFP-transfected only) cells. When mANO1 was transfected alone, 50 nM endothelin-1 evoked appreciable currents; presumably because of the presence of endogenous endothelin receptors in HEK cells.

mANO1 [3] = target: T1, mANO1 (Mus musculus, UniProt Q8BHY3, S527P); assay: Ca2+ activation of macroscopic currents in inside-out patches from ANO1/ETAR-HEK cells; format: biochemical; design: expressed in transfected cells; conditions: for EC50: inside-out patches
T1 sequence (Q8BHY3 1-960 S527P): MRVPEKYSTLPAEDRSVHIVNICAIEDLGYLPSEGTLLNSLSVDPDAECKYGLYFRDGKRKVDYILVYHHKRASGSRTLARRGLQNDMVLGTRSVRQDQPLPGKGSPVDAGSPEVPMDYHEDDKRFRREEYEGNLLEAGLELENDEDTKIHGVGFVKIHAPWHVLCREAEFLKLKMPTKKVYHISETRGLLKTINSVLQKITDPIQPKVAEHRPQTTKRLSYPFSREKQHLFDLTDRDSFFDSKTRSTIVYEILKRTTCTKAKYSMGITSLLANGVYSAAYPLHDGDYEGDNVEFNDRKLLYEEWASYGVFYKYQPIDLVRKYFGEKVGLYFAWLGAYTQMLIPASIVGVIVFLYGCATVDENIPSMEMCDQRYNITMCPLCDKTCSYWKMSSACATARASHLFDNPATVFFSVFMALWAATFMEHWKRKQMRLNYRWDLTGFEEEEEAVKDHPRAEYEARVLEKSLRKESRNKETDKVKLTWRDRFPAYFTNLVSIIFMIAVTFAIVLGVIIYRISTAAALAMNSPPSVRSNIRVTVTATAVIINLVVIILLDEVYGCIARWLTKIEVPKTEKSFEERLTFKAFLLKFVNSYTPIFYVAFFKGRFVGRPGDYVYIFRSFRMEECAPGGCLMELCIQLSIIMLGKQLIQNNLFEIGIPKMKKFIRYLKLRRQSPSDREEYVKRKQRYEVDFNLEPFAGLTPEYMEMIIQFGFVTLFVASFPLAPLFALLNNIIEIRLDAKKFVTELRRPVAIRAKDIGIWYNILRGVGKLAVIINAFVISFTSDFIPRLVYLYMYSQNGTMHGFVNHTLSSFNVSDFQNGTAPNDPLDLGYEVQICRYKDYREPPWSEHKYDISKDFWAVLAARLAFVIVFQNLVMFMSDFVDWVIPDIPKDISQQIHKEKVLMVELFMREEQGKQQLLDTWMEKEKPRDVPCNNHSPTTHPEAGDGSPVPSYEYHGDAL
Procedure: A. Macroscopic current responses to repeated applications of Ca^2+ in various concentrations to the bath of inside-out patches isolated from mANO1-ETAR/HEK cells at holding potentials of −60 or +60 mV. Pipette and bath solution contained 140 mM NMDG-Cl.
B. Dose-response relationship of mANO1 activation by Ca^2+. Current responses were normalized versus those observed at 10 μM (−60 mV, n=8) or 3 μM Ca^2+ (+60 mV, n=8). Data points were fitted to the Hill's equation. (Error bars=Mean±S.E.M)
as §1
Ca^2+ in various concentrations applied to the bath (intracellular side) evoked macroscopic […] currents in a dose-dependent manner (Ehold=−60 mV) (FIG. 7A). […] The threshold concentration of Ca^2+ reached about 0.3 μM at −60 mV holding potential (FIG. 7B). Remarkably, ANO1 activation by Ca^2+ was voltage-dependent, which is also characteristic of endogenous CaCCs (Nilius, B. et al., Cell Calcium 22, 53-63 (1997), Kuruma, A. & Hartzell, H. C., J Gen Physiol 115, 59-80 (2000), Evans, M. G. & Marty, A., J Physiol 378, 437-60 (1986)). At a depolarized membrane potential (+60 mV), ANO1 was more sensitive to Ca^2+ and the concentration-response curve shifted to the left, resulting in an EC50 of 0.4 μM (FIG. 7B). Hill's coefficients of the concentration-response curves were 2.0 and 2.4 at −60 and +60 mV, respectively.

hANO1 = assay: Current recording in hANO1/ETAR-HEK cells; format: cell-based, human; conditions: 50 nM endothelin-1
From the text: The hANO1 (human TMEM16A; NM_018043, GI: 40354209) was cloned from human trachea total RNAs (Clontech, Palo Alto, Calif.) by PCR method using following primers; forward primer 5′-CTCGAGGCCACCATGAGGGTCAACGAGAAGTACTC-3′ (SEQ ID NO: 8) and reverse primer 5′-GGTACCCTACAGGACGCCCCCGTGGTAG-3′ (SEQ ID NO: 9). The PCR product was cut with XhoI and KpnI, and then inserted into XhoI/KpnI site of pSDTF or pEGFP-N1.
To form gigaseals, individual cell surfaces were touched with a ˜3 Mohm Sylgard-coated glass pipette with gentle suction, and the junction potential was then adjusted to 0 mV. The membrane in contact with the pipette was then ruptured by suction to form a whole cell. The pipette solution contained 140 mM NMDG-Cl, 2 mM MgCl2, 10 mM HEPES, 2 mM ATP, and 0.3 mM GTP adjusted to pH 7.2, and the bath solution contained 140 mM NMDG-Cl, 2 mM MgCl2 and 10 mM HEPES (pH 7.2). For ion selectivity experiments, 140 mM NMDG-Cl was replaced with equimolar NaCl, NaL NaBr, NaNO3, NaF, or Na-gluconate in the bath solution. To determine current-voltage relationships, voltage ramps from −80 or −100 mV to +80 or +100 mV were delivered for 350 ms, or voltage-pulses from −100 mV to +100 mV were delivered for 400 ms to whole cells. When mANO1 was activated by 300 nM intracellular Ca^2+, voltage-pulses of 2500 ms were delivered. […]

NCCOB(c1ccccc1)c1ccccc1 [2APB]
block of ATP induced-membrane potential change (mANO1 [1]; pretreatment of 2APB, ANO1-stably expressing HEK cells): blocked

CNc1ccc2oc(C[C@H]3O[C@@]4(CC[C@H]3C)O[C@H]([C@H](C)C(=O)c3ccc[nH]3)[C@H](C)C[C@H]4C)nc2c1C(=O)O [A23187]
membrane potential change detected by fluorescent intensity (mANO1 [1]): evoked membrane potential change

Nc1ncnc2c1ncn2[C@@H]1O[C@H](COP(=O)(O)OP(=O)(O)OP(=O)(O)O)[C@@H](O)[C@H]1O [ATP]
membrane potential change detected by fluorescent intensity (mANO1 [1]): evoked robust change in membrane potentials
inward currents activated by ATP (mANO1 [2]; ATP 100 μM, mANO1 co-transfected with P2Y2R in HEK 293T cells, Ehold −60 mV): Large inward currents

[Ca+2] [Ca^2+]
Hill's coefficient of concentration-response curve (mANO1 [3]; +60 mV): 2.4
EC50 (mANO1 [3]; depolarized membrane potential +60 mV, read-out: EC50 for ANO1 activation): 400 nM
EC50 (mANO1 [3]; holding potential −60 mV, read-out: half-maximal concentration (EC50) for ANO1 activation): 2600 nM
Hill's coefficient of concentration-response curve (mANO1 [3]; −60 mV): 2.0
threshold concentration for ANO1 activation (mANO1 [3]; −60 mV holding potential): about 0.3 μM

endothelin-1 (CSCSSLMDKECVYFCHLDIIW) [powerful vasoconstrictor; ligand of endothelin receptor subtype A (ETAR)]
endothelin-1 evoked inward currents (mANO1 [2]; 50 nM endothelin-1, mANO1-ETAR/HEK cells, whole cell, membrane potential −60 mV): evoked robust inward currents
second responses relative to first responses (tachyphylaxis) (mANO1 [2]; 50 nM endothelin-1 applied twice with a 5 min interval, ANO1/ETAR-HEK cells, n=12, no blocker): 87.1±11.4%
endothelin-1 evoked Cl− currents (hANO1): evoked large Cl^− currents
